Experimental data taken from US9040071B2, “Pary-xylene based microfilm elution devices” (Cute Lovable Teddy Bear, LLC., priority 2009, dated 2015).
Structures can show the parent of a compound that is named as a salt.

How the values were obtained:
Type in all cases: physicochemical
[1] = Therapeutic spreading on unoxidized vs oxidized parylene layer (Example 1)
Excerpt: Referring to FIG. 4, Example 1 is an experiment to compare therapeutic spreading with respect to an unoxidized parylene layer and an oxidized parylene layer. The therapeutic analyte was Doxorubicin-HCl. Doxorubicin-HCl is the salt version of the anti-cancer chemotherapeutic Doxorubicin: (8S,10S)-8-acetyl-10-[(2S,4S,5S,6S)-4-amino-5-hydroxy-6-methyl-oxan-2-yl]oxy-6,8,11,14-tetrahydroxy-1-methoxy-9,10-dihydro-7H-tetracene-5,12-dione, having four fused six member rings of which two are unsaturated and one is a dione and a pendant sugar group The Doxorubicin-HCl has a red color and is easily visualized with no additional modification.
FIG. 5 is plot of therapeutic intensity vs. distance a from the a peripheral margin along a great diameter. Discarding values at the margin, for unoxidized paralyene there are two peaks and three troughs with amplitude variation ranging from about 0.009 to about 0.012 with units being arbitrary values of intensity measurement. In contrast, for oxidized paralyene, there are no significant peaks or troughs and near constant intensity at about 0.008.

[2] = Doxorubicin-HCl elution, multilayer laminate vs single layer barrier, in water and media (Example 5); details: for elution rate: compared with 0.05 gram-layer constructs
[3] = Paclitaxel elution from parylene devices (Example 9); details: uncovered devices (no top layer); PBS, 37 degrees Celsius; judged by visualization of the devices
Excerpt: Referring to FIG. 14, Example 9 is an experiment to test the elution of paclitaxel (taxol). Paclitaxel is smaller hydrophobic molecule drug and has the chemical composition of (2α,4α,5β,7β,10β,13α)-4,10-bis(acetyloxy)-13-{[(2R,3S)-3-(benzoylamino)-2-hydroxy-3-phenylpropanoyl]oxy}-1,7-dihydroxy-9-oxo-5,20-epoxytax-11-en-2-yl benzoate. It is a microtubule stabilizing therapeutic with anti-cancer properties.
A series of trilayer devices were constructed having a top barrier layer having a mass of 0.3, 0.45, or 0.6 gram oxidized parylene.
Devices containing no top layer (uncovered) were not maintained as part of these experiments in that all of the drug is released from uncovered devices within the first 24 hours. […] With rapidly increasing concentration, the paclitaxel rapidly precipitates out of solution (visible by the accumulation of white precipitate) making quantification of the released drug impossible. Drug release from uncovered devices was determinable by the visualization of the devices and noticing the lack of drug on their surfaces.
For each time point, peak absorbance was measured at 230 nanometers at which paclitaxel is readily detectable.

[4] = oxidized parylene relative to unoxidized parylene, 50 μg desiccated, two replicates

## COc1cccc2c1C(=O)c1c(O)c3c(c(O)c1C2=O)C[C@@](O)(C(=O)CO)C[C@@H]3O[C@H]1C[C@H](N)[C@H](O)[C@H](C)O1 [Doxorubicin-HCl]
[1]; [4]
  radius of stained area: about twice the radius
  surface area of stained area: four times the surface area
[1]; oxidized parylene, no significant peaks or troughs, near constant
  therapeutic intensity: about 0.008 arbitrary values of intensity measurement
[2]; media, multilayer laminate 3×0.05 grams
  drug release vs single layer device of 0.05 gram laminate: release less drug
[2]; media, multilayer laminate 5×0.05 grams
  drug release vs single layer device of 0.05 gram laminate: release less drug
[2]; media, multilayer laminate 7×0.05 grams
  drug release vs single layer device of 0.05 gram laminate: release less drug
[2]; media, multilayer laminate constructs of 3×0.05, 5×0.05 and 7×0.05 grams
  elution profile compared among constructs: approximately the same elution profile
[2]; media, single layer laminate device of 0.15 grams, regular parylene C
  drug release: do not release the drug
[2]; media, single layer laminate device of 0.25 grams, regular parylene C
  drug release: do not release the drug
[2]; media, single layer laminate device of 0.35 grams, regular parylene C
  drug release: do not release the drug
[2]; water, constructs of 1×0.05, 3×0.05, 5×0.05 and 7×0.05 grams
  elution profile compared among constructs: approximately the same elution profile
[2]; water, single layer laminate device of 0.15 grams
  elution rate: slower elution
[2]; water, single layer laminate device of 0.25 grams
  elution rate: slower elution
[2]; water, single layer laminate device of 0.35 grams
  drug release: does not release the drug

## CC(=O)O[C@H]1C(=O)[C@@]2(C)[C@H]([C@H](OC(=O)c3ccccc3)[C@]3(O)C[C@H](OC(=O)[C@H](O)[C@@H](NC(=O)c4ccccc4)c4ccccc4)C(C)=C1C3(C)C)[C@]1(OC(C)=O)CO[C@@H]1C[C@@H]2O [paclitaxel, (2α,4α,5β,7β,10β,13α)-4,10-bis(acetyloxy)-13-{[(2R,3S)-3-(benzoylamino)-2-hydroxy-3-phenylpropanoyl]oxy}-1,7-dihydroxy-9-oxo-5,20-epoxytax-11-en-2-yl benzoate]
[3]
  time within which all of the drug is released: ≤ 24 h
